# Like-named read-outs stand apart in the source and are kept apart here.
# Experiments:
# [1] = system: CAM blood vessel development; conditions: 48 hrs, with VEGF or bFGF
# Description: Fertilized chicken eggs were incubated at 37° C. At E8 a window was created to allow visualization of the egg shell membrane. 6 mm blank paper discs (BD) were placed on the egg shell membrane along with VEGF (100 ng) or bFGF (100 ng) and DZ-50. The windows were sealed with porous adhesive and allowed to incubate 48 hrs. At E10 the adhesive was removed along with the egg shell membrane to expose the CAM and 4% paraformaldehyde was added. Following excision the number of vessels per CAM was quantified by counting under a dissecting microscope.
# [2] = system: PC-3 cells injected in the tail vein; conditions: 200 mg/kg p.o. from 10 d postinoculation, 21 days of treatment, vs untreated control mice
# Description: Spontaneous Metastasis Assay: Human prostate cells (PC-3) were injected (2×10^6 cells/80 μl of PBS) in the tail vein of male nude mice, 4-6 wks of age; mice were maintained in a pathogen-free environment. At 10 days post-inoculation, 200 mg/kg of DZ-50 was given daily (via oral gavage as described above). After 2 wks of treatment, DZ-50 treated and vehicle control mice were sacrificed and lungs, spleen, kidneys, and prostate organs were excised and subjected to examination for metastatic tumor lesions. Apoptosis Evaluation Apoptotic cells were detected using the ApopTago Peroxidase In Situ Apoptosis Kit (Chemicon, Temecula, Calif.). Briefly, paraffin-embedded sections were treated with Proteinase K (Dako, Carpinteria, Calif.) and were subsequently incubated with terminal deoxynucleotidyl transferase enzyme. Terminal deoxynucleotidyl transferase-mediated deoxyuridine triphosphate nick end labeling (TUNEL)-positive cells were counted in five different fields (400×) and the apoptotic index was determined based on the number of apoptotic cells over the total number of cells. […] CD31-positive endothelial cells were counted in five different fields (400×). Cell Proliferation Cell proliferation index was evaluated on the basis of Ki67 nuclear antigen immunoreactivity. […] Ki67+ cells were counted from five different fields (400×).
# [3] = system: integrins α2, α3, αV, and β3; conditions: PC-3 cells, data not shown
# Description: (§1) FACS—Flow Cytometric Analysis: PC-3 cells were treated with DZ-50 (10 μM) and harvested with 0.5 mM EDTA solution. Prostate cancer epithelial cells were then incubated with hanks balanced salt solution (HBSS) supplemented with 2% BSA and 0.01% sodium azide for 30 min at 4° C. Cells were subsequently fixed in 4% (w/v) formaldehyde, washed, and incubated with the designated integrin antibody followed by FITC-conjugated goat anti-mouse secondary. Analysis was performed on a Partec FlowMax (Partec, Munster, Germany).
# integrin β1 = conditions: 10 μmol/L
# Description: as §1
# [4] = data not shown
# HUVEC = assay: Tube formation assay (in vitro angiogenesis); assay type: cell-based, human; conditions: for vascular endothelial cell tube formation: 10 μmol/L, Matrigel, 24 hrs
# PC-3 cells [5] = conditions: 6, 9, and 12 h exposure, 5 and 10 μmol/L
# Description: (§2) Prostate cancer cells PC-3 and DU-145 cells were treated for 3, 6, 9, 12, or 15 hrs with DZ-50 (5 μM) and harvested. 5×10^4 cells were added to each well of a 6-well culture dish coated with either collagen or fibronectin and incubated for 30 min at 37° C. Following incubation cells were fixed and the number of cells/well recorded. Numerical data represent the average of three independent experiments in triplicate.
# DU-145 cells [6] = system: DU-145 cells
# Description: as §2
# [7] = system: PC-3 human prostate cancer xenografts; conditions: for CD31+ (vascularity) / Ki67 (proliferation index), % / TUNEL (apoptotic index): PC-3 xenograft
# Description: (§3) Tumorigenicity Studies. Human prostate cells (PC-3 and DU-145) suspended in PBS, were inoculated subcutaneously (s.c.) (2.5×10^6 cells/site) in the flank of male nude mice, 4-6 weeks of age. Tumors were measured every 48 hrs with a digital caliber, and tumor volumes were calculated using the formula length×(width)^2/2. When tumors reached ≈50 mm^3 mice were stratified into treatment groups of 6 mice/treatment. DZ-50 was administered at doses of 50, 100, and 200 mg/kg in 0.5% methylcellulose (w/v)+0.1% Tween-80 (v/v) in water, by oral gavage using a 22-gauge, 1.5-inch gavage needle. Animals were sacrificed after 2 wks of treatment unless otherwise indicated. In a separate experiment human prostate cells (PC-3) were inoculated as described above and dosing began (200 mg/kg) concurrently for 2 wks. Upon termination of the experiment, tumors were surgically excised and tissue specimens were fixed in a 10% (v/v) formalin solution (Sigma) and subsequently embedded in Paraplast X-tra paraffin (VWR). Blocks were sectioned (6 μm) on a Finesse Microtome (ThermoShandon, UK).
# (§4) Spontaneous Metastasis Assay: Human prostate cells (PC-3) were injected (2×10^6 cells/80 μl of PBS) in the tail vein of male nude mice, 4-6 wks of age; mice were maintained in a pathogen-free environment. At 10 days post-inoculation, 200 mg/kg of DZ-50 was given daily (via oral gavage as described above). After 2 wks of treatment, DZ-50 treated and vehicle control mice were sacrificed and lungs, spleen, kidneys, and prostate organs were excised and subjected to examination for metastatic tumor lesions. Apoptosis Evaluation Apoptotic cells were detected using the ApopTago Peroxidase In Situ Apoptosis Kit (Chemicon, Temecula, Calif.). Briefly, paraffin-embedded sections were treated with Proteinase K (Dako, Carpinteria, Calif.) and were subsequently incubated with terminal deoxynucleotidyl transferase enzyme. Terminal deoxynucleotidyl transferase-mediated deoxyuridine triphosphate nick end labeling (TUNEL)-positive cells were counted in five different fields (400×) and the apoptotic index was determined based on the number of apoptotic cells over the total number of cells. Vascularity Evaluation: CD31 staining was performed for endothelial cells using enzymatic digestion with Proteinase K (Dako). The primary antibody used was the mouse anti-human CD31 specific for endothelial cells from Dako (overnight incubation at 4° C.). CD31-positive endothelial cells were counted in five different fields (400×). Cell Proliferation Cell proliferation index was evaluated on the basis of Ki67 nuclear antigen immunoreactivity. Following antigen retrieval slides were incubated with an antibody directed against the Ki67 nuclear antigen (AMAC, Westbrook, Mass.). Ki67+ cells were counted from five different fields (400×).
# [8] = system: DU-145 human prostate cancer xenografts; conditions: for CD31+ (vascularity) / Ki67 (proliferation index), % / TUNEL (apoptotic index): DU-145 xenograft
# Description: as §3, §4
# [9] = system: PC-3 cells on HMVEC-L monolayer; conditions: 6 hrs of exposure, non-cytotoxic doses
# Description: Sterile (12 mm diameter) glass coverslips were coated with Matrigel (Becton Dickson, Franklin Lakes, N.J.) at a dilution of 1:8 and air dried at room temperature (1 hr). Coverslips received approximately 6.25×10^4 HMVEC-L to form a complete monolayer. The cells were allowed to spread on the Matrigel for 24 hrs prior to the experiment. PC-3 cells were resuspended in EGM-2MV (Cambrex) and added to the HMVEC-L monolayer at a concentration of 8×10^3 cells/coverslip. Co-cultures were incubated at 37° C. at 5% CO2 for 3, 6, 9, 12, and 24 hrs. Prior to the addition of prostate epithelial cells, cells were incubated with the lipophilic tracer 1,1′-dioctadecyl-3,3,3′,3′-tetramethylindocarbocyanine perchlorate (DiI) (Invitrogen, Carlsbad, Calif.) for 20 min at 10 μg/ml to stain cell membranes. To label F-actin, PC-3 cells, or co-cultures of PC-3 cells HMVEC-L were fixed for 10 min at room temperature in 2% paraformaldehyde in PBS, and were permeabilized for 5 min with a buffer containing 15 mM Tris, 120 mM NaCl, 2 mM EDTA, 2 mM EGTA, and 0.5% Triton X-100 (pH 7.4). […] Coverslips were mounted with Vectashield (Vector Laboratories, Burlington, Canada) on glass slides and analyzed with confocal microscopy.
# [10] = system: HUVEC, HMVEC-L vascular endothelial cells; conditions: non-cytotoxic doses 5 and 10 μM
# Description: (§5) a) Hoechst Staining. Cells were plated in 6-well culture dishes at 5×10^4 cells per/well and at subconfluency were treated with increasing concentrations of DZ-1-23, -38, -40, -42, and -50 (0-25 μM). After 24 and 48 hrs of treatment, cells were fixed with 4% (w/v) paraformaldehyde (Sigma) and stained with 10 μg/mL Hoechst 33342 (B2261; Sigma) in the presence of 0.1% Triton X-100 (Sigma) as previously described. Cells were visualized using a Zeiss Axiovert S100 fluorescent microscope (Thornwood, N.Y.) with a UV filter (365 nm) and cells with condensed chromatin were designated apoptotic (100× magnification). The apoptotic index was determined by counting three random fields in duplicate wells per group. Each experiment was performed twice. b) MTT assay: Subconfluent cultures of cells were exposed to increasing concentrations of DZ-1-23, -38, -40, -42, and -50 (0-25 μM). After treatment the medium was replaced with 250 μl of MTT (Sigma) (1 mg/ml) and incubated at 37° C. to form blue crystals. After 2 hrs the MTT was removed and replaced with DMSO (250 μl) and incubated overnight at 37° C. The DMSO-crystal solution's absorbance was read at 540 nm in a microplate reader (Bio-Tek Instruments, Winooski, VM). Numerical data represent the average of three independent experiments performed in triplicate. Cell Migration Assay. (Wounding assay) Confluent monolayers of PC-3, DU-145, HUVEC, or HMVEC-L cells were wounded with a toothpick. After wounding, medium was changed and DZ-3 or DZ-50 (5 μM). After incubation for 12 or 24 hrs, wounding areas were examined under light microscopy (Axiovert 10, Zeiss). Cells that had migrated to the wounded areas were counted under a microscope for quantification of cell migration. Migration was calculated as the average number of cells observed in five random high power (400×) wounded fields/per well in duplicate wells. Tube Formation Assay: In vitro Angiogenesis Evaluation: In vitro formation of tubular structures was studied on extracellular matrix using an angiogenesis kit as described by the manufacturer (Chemicon International, Inc., Temecula, Calif.). HUVEC or HMVEC-L (10×10^4 cells/well) of 96-well-plates were seeded onto ECMatrigel-coated wells in the presence or absence of DZ-3 or DZ-50 and VEGF. Cells were treated with cytokines as single agents or each in combination (e.g. DZ-50 and VEGF).
# PC-3 cells [11] = conditions: for apoptosis induction: 10 μmol/L, 24 h
# Description: as §5
# DU-145 cells [12] = conditions: non-cytotoxic doses 5 and 10 μM
# Description: as §5
# [13] = system: endothelial and epithelial cell lines; assay: Cell viability / cell death evaluation (MTT assay); assay type: cell-based, human
smiles,measurement,setting,value
CC(C)Oc1cc2nc(N3CCN(S(=O)(=O)c4ccc(-c5ccccc5)cc4)CC3)nc(N)c2cc1OC(C)C [DZ-50],angiogenesis/vascularity (number of blood vessels per CAM),[1],significant suppression of angiogenesis/vascularity
same,number of metastatic foci to the lungs,[2],significant reduction
same,"surface expression of integrins α2, α3, αV, and β3",[3],did not effect the surface expression
same,integrin β1 expression intensity,"integrin β1; DU-145 cells, 12 h",significantly smaller shift
same,integrin β1 surface expression,"integrin β1; PC-3 cells, 12-24 hrs",undetectable
same,"gross and histological examination of lung, liver, spleen, and prostate",[4]; compared to control animals,no apparent changes
same,animal's behavioral pattern and weight,[4],no change
same,tube formation in the presence of VEGF,HUVEC; 10 μmol/L with VEGF,VEGF cannot reverse the antiangiogenic effect
same,vascular endothelial cell tube formation,HUVEC,significantly inhibited
same,attachment of PC-3 cells to fibronectin or collagen,PC-3 cells [5],"reduced the ability of PC-3 cells to attach to either fibronectin or collagen, but this effect was not statistically significant"
same,attachment of DU-145 cells to fibronectin or collagen,DU-145 cells [6],"neither fibronectin nor collagen, was significantly inhibited"
same,prostate tumor development (growth initiation),"[7]; PC-3 inoculation with simultaneous treatment, 200 mg/kg p.o., 2 wks",dramatically suppressed
same,CD31+ (vascularity),[7]; 100 mg/kg,13.5 ± 1.9
same,"Ki67 (proliferation index), %",[7]; 100 mg/kg,42.6%
same,TUNEL (apoptotic index),[7]; 100 mg/kg,2.0 ± 0.8
same,CD31+ (vascularity),[7]; 200 mg/kg,6.5 ± 0.6
same,"Ki67 (proliferation index), %",[7]; 200 mg/kg,45.0%
same,TUNEL (apoptotic index),[7]; 200 mg/kg,1.4 ± 0.4
same,tumor volume,"[7]; PC-3 xenografts, 200 mg/kg p.o., 14 d after palpable tumor formation",significant reduction in tumor volume
same,CD31+ (vascularity),[8]; 100 mg/kg,15.1 ± 0.7
same,"Ki67 (proliferation index), %",[8]; 100 mg/kg,53.9%
same,TUNEL (apoptotic index),[8]; 100 mg/kg,3.5 ± 1.0
same,CD31+ (vascularity),[8]; 200 mg/kg,10.1 ± 0.4
same,"Ki67 (proliferation index), %",[8]; 200 mg/kg,49.7%
same,TUNEL (apoptotic index),[8]; 200 mg/kg,3.4 ± 1.2
same,tumor volume,"[8]; DU-145 xenografts, 200 mg/kg p.o., 14 d after palpable tumor formation",significant reduction in tumor volume
same,attachment of tumor epithelial cells to an endothelial monolayer,[9],significantly inhibited
same,endothelial cell migration,[10],significant inhibition
same,apoptosis induction,PC-3 cells [11],not effective at inducing apoptosis
same,prostate cancer epithelial cell migration (PC-3),PC-3 cells [11]; non-cytotoxic doses 5 and 10 μM,significant inhibition
same,prostate cancer epithelial cell migration (DU-145),DU-145 cells [12],significant inhibition
same,cell viability/cell death,"[13]; PC-3 and HMVEC-L cells, 10M, first 24 hrs of treatment",no effect on cell viability/cell death
same,cell viability,"[13]; endothelial and epithelial cell lines, 24 and 48 hrs, 5-25 μmol/L",reduced cell viability
"COc1cc2nc(N3CCN(S(=O)(=O)c4c(C(C)C)cc(C(C)C)cc4C(C)C)CC3)nc(N)c2cc1OC [DZ-10, 2-[4-(2,4,6-triisopropylbenzenesulfonyl)-piperazin-1-yl]-6,7-dimethoxyquinazolin-4-yl-amine]",vascular endothelial cell tube formation,HUVEC,does not change the ability of HUVEC cells to form multibranched tubular networks
same,effect on cell viability,[13]; negative control compound of the tube formation assay,no effect on cell viability
COc1cc2nc(N3CCN(S(=O)(=O)c4ccc(-c5ccccc5)cc4)CC3)nc(N)c2cc1OC [DZ-3],apoptosis induction,PC-3 cells [11],trigger apoptotic cell death
